For data set [1], the system named is human lung cancer NCI-H2228 xenografts. As to the kind of experiment: Therapeutic effect in vivo on NCI-H2228 xenografts in nude mice. Also noted: species or system BALB/c Nude mice. Particulars: PO. How it is done:
(§1) BALB/c Nude mice, female, 8-10 weeks old, 18-20g. The variation of the body weight is ±20% around average body weight. 80 mice were inoculated and 60 mice were grouped.
Table 9 Experimental design of therapeutic effect of the drugs in vivo
NCI-H2228 cells were cultured in RPMI 1640 medium supplemented with 10% FBS and maintained in a 37°C, 5% CO2 humidified incubator.
Log-phase NCI-H2228 cells were harvested, resuspended in RPMI 1640 basal medium containing 50% Matrigel, and adjusted to a concentration of 2 × 10^7 cells/mL. Under aseptic conditions, 0.1 mL of the cell suspension was injected subcutaneously into the right flank of mice at a concentration of 2 × 10^6 cells/0.1 mL/mouse.
When the mean tumor volume reached approximately 150 mm^3, animals were randomly grouped based on tumor volume, ensuring inter-group tumor volume variation was less than 10% of the mean.
(§2) The grouping day was designated as Day 0, and administration commenced according to animal body weight.
(§3) The same as the therapeutic effect evaluation experiments for Examples 1-2 and Comparative Examples 1-3.

A short description of data set [2]: Animal body weight, fatality and toxicity observation in the NCI-H2228 xenograft study. The class given is in vivo, BALB/c Nude mice.
Text: as §1, §2, §3

For a further data set, the system named is NCI-H2228 cell. The data set is described as follows: CCK8 proliferation assay with combination index analysis. It is filed as cell-based, human. The following applies: Alectinib alone. How it is done: CCK8 method was used to evaluate the effect of the drugs towards proliferation of lung cancer cell line (NCI-H2228 cell). The cellular viability with different concentration of drug was assayed and the 50% inhibitory concentration was calculated.
Emerge NCI-H2228 cells (purchased from American Type Culture Collection (ATCC, Manassas, VA, USA)) from liquid nitrogen and thaw in a 37°C water bath. After thawing, culture cells in 1640 medium.
When cell density reached 90% confluence in culture medium, cells were digested with 0.25% trypsin and resuspended. After cell growth stabilized, cells in the logarithmic growth phase were harvested and counted using a cell counter and it was ensured that viability exceeded 85% for all cell lines.
Adjust cell concentration by diluting with culture medium. Add 100 µL of cell suspension to a 96-well plate to achieve a density of 3000 cells/well. Add 100 µL of PBS buffer to the wells around the cell-seeded wells.
Incubate the 96-well plate at 37°C, 5% CO2, and 95% humidity overnight.
Remove the cell culture plate from the incubator, aspirate the culture medium, and add the prepared drug-containing medium. Incubate at 37°C, 5% CO2, and 95% humidity for 72 hours.
Add 10 µL of CCK-8 solution to each well of the 96-well plate. Incubate the plate in the cell culture incubator for 1.5 hours. Measure the absorbance at 450 nm using a microplate reader.
Analyze data using GraphPad Prism 5.0 software. Fit the data using nonlinear S-curve regression to generate a dose-response curve and calculate the IC50 value. [formula]
The analysis of the combination index of the compound was performed using the median effect principle. The formula for the combination index of two compounds is: CI = (D)1/(Dx)1 + (D)2/(Dx)2 [formula]
Where: • (D)1---- The concentration of Compound 1 when compound 1 was used with another compound and the effect X was generated; • (D)2---- The concentration of Compound 2 when compound 2 was used with another compound and the effect X was generated; • (Dx)1---- The concentration of Compound 1 when compound 1 was used alone and the effect X was generated; • (Dx)2---- The concentration of Compound 2 when compound 2 was used alone and the effect X was generated.
The CI value enables quantitative assessment of the nature and strength of interactions between different compounds (Table 2). Interaction strength is measured using the weighted average CI (CIwt), calculated by the formula: CIwt = (CI50+2CI75+3CI90+4CI95)/10 [formula]
Where: • CI50 ---- CI value at EC50 (concentration achieving 50% effect) • CI75, CI90, and CI95 follow the same principle, representing the CI values at EC75, EC90, and EC95, respectively.
Evaluation of the combination effect: CI value is used to evaluate the combination effect, and the judgment method is shown in Table 7. Table 7 Judgment criteria of the results

Data set [3] relates to human lung cancer NCI-H1975 xenografts. The data set is described as follows: Therapeutic effect in vivo on NCI-H1975 xenografts in nude mice. Also on record: species or system BALB/c Nude mice. Particulars: PO. How it is done:
BALB/c Nude mice, female, 8-10 weeks old, 18-20g. […] Table 2 Experimental design of therapeutic effect of the drugs in vivo […] NCI-H1975 cells were cultured in RPMI 1640 medium supplemented with 10% FBS and maintained in a 37°C, 5% CO2 humidified incubator. Log-phase NCI-H1975 cells were harvested, resuspended in RPMI 1640 basal medium containing 50% Matrigel, and adjusted to a concentration of 2 × 10^7 cells/mL. Under aseptic conditions, 0.1 mL of the cell suspension was injected subcutaneously into the right flank of mice at a concentration of 2 × 10^6 cells/0.1 mL/mouse. […] The grouping day was designated as Day 0, and administration commenced according to animal body weight. […] Animal body weight and tumor volume were measured twice weekly throughout the experiment. Tumor length and width were measured using a digital caliper, with tumor volume estimated from these measurements. After the final weighing on Day 21, remaining animals were euthanized with CO2. Tumors were weighed, photographed, and the experiment concluded. […] Tumor growth inhibition rate (%TGITV) is calculated as: […] Relative Tumor Volume (RTV) is calculated as Vt/V0, where V0 is the tumor volume at grouping and Vt is the tumor volume at each measurement. Relative Tumor Growth Rate (%T/CRTV) is calculated as TRTV/CRTV × 100%, where TRTV is the RTV of the treatment group and CRTV is the RTV of the negative control group. Tumor growth inhibition rate (%TGITW) is calculated as: ([…] × 100%, where TWc is the average tumor weight in the negative control group and TWT is the average tumor weight in the treatment group. […] Drug-related animal mortality exceeding 20% indicates severe toxicity at that dose. All experimental data in this study are expressed as Mean ± SEM. The evaluation of the combination index (CI) of drugs relies on the following equation: […]), wherein E(A+B) is the inhibition rate of combination drug, EA and EB is the inhibition rate of drug A and drug B respectively. E(A+B) in the equation represents 'measured synergistic effect' and (EA+EB-EA×EB) is 'expected synergistic effect'. CI=0.85-1.15 indicates a mere addition of the effect of two drugs, >1.15 indicates enhancement (or synergy), and <0.85 indicates antagonism. • Combination index of tumor growth inhibition: CAI, 40mg/kg + AZD9291, 1mg/kg: 1.27; […] CAI, 40mg/kg + AZD9291, 1mg/kg: 1.20; […]

The format of data set [4] is in vivo. Here is the method: as §1, §2
Animal body weight and tumor volume were measured twice weekly throughout the experiment. Tumor length and width were measured using a digital caliper, with tumor volume estimated from these measurements.
Clinical observations were recorded daily to assess overall health status, weight abnormalities, behavioral changes, and other treatment-related adverse reactions.
In accordance with animal welfare regulations, animals meeting any of the following criteria during the study were removed from the experimental group and euthanized: 1. Body weight loss exceeding 20% compared to Day 0 (BWL ≥ 20%); 2. Severe adverse reactions such as blindness or paralysis; 3. Tumor volume exceeding 2000 mm^3; 4.
The animal body weight change rate (%BWC) is calculated as: (BWt - BW0) / BW0 × 100%, where BWt is the animal body weight at each measurement and BW0 is the animal body weight at grouping.
According to China's NMPA Technical Guidance Principles for Non-clinical Studies of Cytotoxic Antineoplastic Drugs (November 2006), %T/CRTV ≤ 40% and statistically significant P < 0.05 indicate efficacy. Drug-related animal mortality exceeding 20% indicates severe toxicity at that dose.
All experimental data in this study are expressed as Mean ± SEM.

Setting [5] is: %TGITV from tumor volume vs control, QD×21.
Where [6] appears, read: %TGITW from tumor weight vs control, QD×21.

Molecules are shown by their SMILES. pIC50: −log10 of the molar value. Where “and” joins values, the source holds several entries; their conditions need not be identical. Identical values can stand only once. Like-named read-outs stand apart in the source and are kept apart here. Marks after values point to notes of the source that are not given here.

What is called pIC50 is the negative decadic logarithm of the IC50, by convention in mol/L. On to `CCc1cc2c(cc1N1CCC(N3CCOCC3)CC1)C(C)(C)c1[nH]c3cc(C#N)ccc3c1C2=O` [Alectinib], for which the “Relative tumor proliferation rate(%) Day 21” value in data set [1] (%T/CRTV, QD×21) is 59.77%. The “Tumor growth inhibition rate(%) Day 21” value in data set [1] (setting [5]) stood at 41.23%. The “Tumor inhibition rate(%) Day 21” value in data set [1] (setting [6]) worked out at 49.14%. The “Tumor volume (mm^3,Mean±SEM) Day 21” value in data set [1] (QD×21, dose per group) is 863.95± 98.37* mm^3. Also, in data set [1] (QD×21, listed as Comparative Example 4), the “Tumor weight (g,Mean±SEM) Day 21” value came out at 0.444 ± 0.049 g. The “Relative tumor volume Day 21” value in data set [1] (RTV = Vt/V0, Mean ± SEM, QD×21) is reported as 5.23± 0.32. The Fatality in data set [2] (dead/total animals at Day 21, NCI-H2228 study, PO, QD×21) was 0/10 (Day 21). Besides, the “inhibitory effect on animal weight gain” value in data set [2] (mouse, in vivo) is “slight inhibition effect on animal body weight”. Also, in data set [2] (mouse, in vivo, po), the “Average body weight (g, Mean ± SEM) Day 0” value was determined as 22.48 ± 0.33 g; the “Average body weight (g, Mean ± SEM) Day 21” value came to 22.20 ± 0.41 g; the “Body weight change Day 21 vs Day 0 (g, in brackets)” value is reported as -0.28 g; the “Body weight change rate Day 21 vs Day 0” value is listed as -1.13%. Moreover, the pIC50 with NCI-H2228 cell (single plates 1-3, 72 hours, read-out: IC50 (Alectinib)) is 6.33 and 6.26. Moreover, the pIC50 in the data set with NCI-H2228 cell (Homo sapiens, NCI-H2228, 72 h, average of 3 plates, read-out: IC50 (Alectinib)) is 6.28. Further, the pIC50 in the data set on NCI-H2228 cell (Homo sapiens, NCI-H2228, 72 h, single plates 1-3, read-out: IC50 (Alectinib)) was 6.25.

For `C=CC(=O)Nc1cc(Nc2nccc(-c3cn(C)c4ccccc34)n2)c(OC)cc1N(C)CCN(C)C` [Comparative Example 1, osimertinib], the “Relative tumor proliferation rate(%) Day 21” value in data set [3] (%T/CRTV, QD×21) is listed as 81.08%. Besides, the “Tumor growth inhibition rate(%) Day 21” value in data set [3] (setting [5]) worked out at 21.02%. The “Tumor inhibition rate(%) Day 21” value in data set [3] (setting [6]) was 14.73%. The “Tumor weight (g,Mean±SEM) Day 21” value in data set [3] (QD×21) is 1.401 ± 0.212 g. In data set [3] (QD×21, dose per group), the “Tumor volume (mm^3,Mean±SEM) Day 21” value came out at 1394.40 ±181.52 mm^3. Moreover, the “Relative tumor volume Day 21” value in data set [3] (RTV = Vt/V0, Mean ± SEM, QD×21) amounted to 8.74 ± 0.73. In addition, the Fatality in data set [4] (dead/total animals at Day 21, NCI-H1975 study, PO, QD×21) is listed as 0/10 (Day 21). In data set [4] (mouse, in vivo, po), the “Average body weight (g, Mean ± SEM) Day 0” value is 19.47 ± 0.28 g; the “Average body weight (g, Mean ± SEM) Day 21” value is 21.46 ± 0.42 g; the “Body weight change Day 21 vs Day 0 (g, in brackets)” value was 1.99 g; the “Body weight change rate Day 21 vs Day 0” value was found to be 10.15%.

The values are drawn from patent EP4717275A1, “ANTI-LUNG CANCER COMBINED DRUG AND USE THEREOF” (Gunagdong Yinzhu Pharmaceutical Technology Co., Ltd, priority 2023, dated 2024).
